Columns and labels:
[1] = test system: β-GlcNAc:β1,4GalNAc-T of breast tumor BC9400; assay: β-GlcNAc:β1,4GalNAc-T assay, breast tumor extract; assay type: biochemical, human; conditions: other acceptors, 1 mg protein of the tissue extract
Method: (§1) Colon tumor tissue (CC9338) and breast tumor tissue (BC9400) were obtained during surgical procedures at Roswell Park Cancer Institute and stored frozen within 1 h at −70° C. The tissues were homogenized at 4° C. with 4 volumes of 0.1M Tris Maleate […] 0.1% NaN3 using kinematica. After adjusting the concentration of Triton X-100 to 2%, these homogenates were mixed in the cold room for 1 h using Speci-Mix (Thermolyne) and then centrifuged at 20,000 g for 1 h at 4° C. The clear fat-free supernatant was stored frozen at −20° C. until use. Aliquots of 10 μL from this extract were used in assays run in duplicates. Glycosyltransferase activity in cell lysate was determined by mixing the lysates with acceptor and radiolabeled donor (monosaccharide) under the reaction conditions detailed below, followed by separation of un-reacted donor from the radioactive product using anionic or hydrophobic chromatography. In all cases, the radioactive content of isolated products was determined by using 3a70 scintillation cocktail (Research Products International, Mount Prospect, Ill.) and a Beckman LS6500 scintillation counter. Controls for each assay contained the reaction mixture with everything except the acceptor. All assays were run in duplicate.
(§2) The acceptors used for measuring the glycosyltransferase and sulfotransferase activities are given in Table I. The following are the conditions for individual enzymatic assays. Reaction temperature in all cases was 37° C. α2,3- and α2,6 sialytransferase (ST) assay reactions proceeded for 2 h in a mixture containing 100 mM sodium cacodylate buffer (pH 6.0), 7.5 mM acceptor, CMP-[9-^3H]NeuAc (typically 0.2 μCi) and 10 μl cell extract in a total volume of 20 μl [Chandrasekaran et al., 1995]. βGlcNAc:β1,4Gal-T and αGalNAc:β1,3Gal-T assay mixtures in duplicate contained 0.1M Hepes-NaOH pH 7.0, 7 mM ATP, 20 mM Mn acetate, 1 mM UDP-Gal, UDP [^14C]Gal (0.05 μCi; 327mCi/mmol; Amersham), 0.5 mM acceptor (unless otherwise stated) and the enzyme in a total volume of 20 μL. It was incubated for 4 h [Chandrasekaran et al., 2001]. βGlcNAc:β1,4GalNAc-T assay mixtures in duplicate contained 0.1M Hepes-NaOH pH 7.0, 7 mM ATP, 20 mM Mn acetate. UDP [^3H] GalNAc (0.20 μCi; 7.8 Ci/mmol: New England Nuclear Corp.) 7.5 mM acceptor (unless otherwise stated) and the enzyme in a total volume of 20 μL and incubated for 4 h [Chandrasekaran et al., 2001].
(§3) Dowex-1-C1 or Sep-Pak C18 cartridges were used to isolate radiolabeled product from the reaction mixture. For GalT, GalNAc-T and FT assays, the incubation mixture was diluted with 1 ml water and passed through a 1 ml Dowex-1-C1 column [Chandrasekaran et al., 1996; Chandrasekaran et al., 2001]. The column was washed twice with 1 ml of water. The breakthrough and the water wash contained the [^14C]-galactosylated or [^14C]-fucosylated products formed with neutral acceptors. 3 ml of 0.1M NaCl was used to obtain [^14C]-fucosylated products from sialylated acceptors after water elution. For sialytransferase assays, the radioactive products from benzylglycosides were separated by hydrophobic chromatography on Sep-Pak C18 cartridge (Waters, Milford, Mass.), and elution of the product was done with 3 ml methanol [Palcic et al., 1988]. For sulfotransferase assays, elution of the [^35S]-sulfated compound from Dowex-1-C1 column was achieved by 3 ml of 0.2M NaCl [Chandrasekaran et al., 2004].

[2] = test system: β-GlcNAc:β1,4Gal-T of breast tumor BC9400; assay: β-GlcNAc:β1,4Gal-T assay, breast tumor extract; assay type: biochemical, human; conditions: other acceptors, 1 mg protein of the tissue extract
Method: as §1, §2, §3

[3] = target: T1, FTVI of breast tumor BC9400 (Homo sapiens, UniProt P51993); assay: FTVI assay, breast tumor extract; assay type: biochemical; conditions: 1 mg protein of the tissue extract
T1 construct: from tissue; host or cells: breast tumor tissue BC9400, Triton X-100 extract
T1 sequence (P51993 whole entry): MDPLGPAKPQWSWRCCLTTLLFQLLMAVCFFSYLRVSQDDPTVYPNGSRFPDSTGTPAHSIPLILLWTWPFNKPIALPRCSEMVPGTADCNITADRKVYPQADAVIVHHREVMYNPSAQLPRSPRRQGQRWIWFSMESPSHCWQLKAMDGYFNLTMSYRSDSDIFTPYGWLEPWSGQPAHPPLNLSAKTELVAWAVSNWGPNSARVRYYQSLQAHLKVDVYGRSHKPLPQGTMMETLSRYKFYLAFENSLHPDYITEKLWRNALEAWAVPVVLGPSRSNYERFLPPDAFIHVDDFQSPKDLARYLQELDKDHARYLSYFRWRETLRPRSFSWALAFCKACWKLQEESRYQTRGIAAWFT
Method: as §1, with “duplicate. […]” for “duplicate.”

[4] = test system: β-GlcNAc:β1,4Gal-T of colon tumor CC9338; assay: β-GlcNAc:β1,4Gal-T assay, colon tumor extract; assay type: biochemical, human; conditions: other acceptors, 1 mg protein of the tissue extract
Method: as §1, §2, §3

[5] = test system: β-GlcNAc:β1,4GalNAc-T of colon tumor CC9338; assay: β-GlcNAc:β1,4GalNAc-T assay, colon tumor extract; assay type: biochemical, human; conditions: other acceptors, 1 mg protein of the tissue extract
Method: as §1, §2, §3

[6] = target: T2, FTVI of colon tumor CC9338 (Homo sapiens, UniProt P51993); assay: FTVI assay, colon tumor extract; assay type: biochemical; conditions: 1 mg protein of the tissue extract
T2 construct: from tissue; host or cells: colon tumor tissue CC9338, Triton X-100 extract
T2 sequence (P51993 whole entry): as above
Method: as §1, with “duplicate. […]” for “duplicate.”

Structure (SMILES): CC(=O)N[C@H]1[C@H](OCc2ccccc2)O[C@H](CO)[C@@H](O[C@@H]2O[C@H](CO)[C@@H](O)[C@H](O)[C@H]2NC(C)=O)[C@@H]1O [GlcNAcβ1,4GlcNAcβ-O-Bn]
- b) β-GlcNAc:β1,4GalNAc-T activity: incorporation of radioactive sugar [1]: 57.8 CPM × 10^−3
- a) β-GlcNAc:β1,4Gal-T activity: incorporation of radioactive sugar [2]: 436.7 CPM × 10^−3
- FTVI activity: incorporation of radioactive sugar [3]: 0.3 CPM × 10^−3
- a) β-GlcNAc:β1,4Gal-T activity: incorporation of radioactive sugar [4]: 307.6 CPM × 10^−3
- b) β-GlcNAc:β1,4GalNAc-T activity: incorporation of radioactive sugar [5]: 18.9 CPM × 10^−3
- FTVI activity: incorporation of radioactive sugar [6]: 139.1 CPM × 10^−3
